# Assay results: ChEMBL document CHEMBL1121538, “Nucleosides. 116. 1-(beta-D-Xylofuranosyl)-5-fluorocytosines with a leaving group on the 3' position. Potential double-barreled masked precursors of anticancer nucleosides” (1980)
# Columns and labels:
# Assay type in all cases: functional
# Conditions in all cases: read-out: ID50 (the source's name)
# L5178Y [1] = test: The compound was tested for anticancer activity against L5178Y ([…] resistant) cell lines of mouse leukemia
# L5178Y [2] = test: The compound was tested for anticancer activity against L5178Y (sensitive) cell lines of mouse leukemia
# P815 [3] = test: The compound was tested for anticancer activity against P815([…] resistant) cell lines of mouse leukemia
# P815 [4] = test: The compound was tested for anticancer activity against P815 (sensitive) cell lines of mouse leukemia
structure (smiles),measurement,setting,value
Nc1ccn(C2OC(CO)C(Cl)C2O)c(=O)n1 (stereo not drawn),IC50,L5178Y [1],> 100 µg/mL
same,IC50,L5178Y [2],2 µg/mL
same,IC50,P815 [3],> 100 µg/mL
same,IC50,P815 [4],0.8 µg/mL
Nc1ccn(C2OC(CO)C(Br)C2O)c(=O)n1 (stereo not drawn),IC50,L5178Y [1],> 100 µg/mL
same,IC50,L5178Y [2],0.03 µg/mL
same,IC50,P815 [3],> 100 µg/mL
same,IC50,P815 [4],0.05 µg/mL
Nc1nc(=O)n(C2OC(CO)C(Cl)C2O)cc1F (stereo not drawn),IC50,L5178Y [1],71 µg/mL
same,IC50,L5178Y [2],1 µg/mL
same,IC50,P815 [3],> 30 µg/mL
same,IC50,P815 [4],0.7 µg/mL
CS(=O)(=O)O[C@@H]1[C@@H](O)[C@H](n2ccc(N)nc2=O)O[C@@H]1CO,IC50,L5178Y [1],> 100 µg/mL
same,IC50,L5178Y [2],0.07 µg/mL
same,IC50,P815 [3],22 µg/mL
same,IC50,P815 [4],0.03 µg/mL
Cc1ccc(S(=O)(=O)O[C@@H]2[C@@H](O)[C@H](n3ccc(N)nc3=O)O[C@@H]2CO)cc1,IC50,L5178Y [1],> 100 µg/mL
same,IC50,L5178Y [2],0.08 µg/mL
same,IC50,P815 [3],> 30 µg/mL
same,IC50,P815 [4],0.06 µg/mL
Nc1ccn([C@@H]2O[C@H](CO)[C@H](F)[C@H]2O)c(=O)n1,IC50,L5178Y [1],> 100 µg/mL
same,IC50,L5178Y [2],37 µg/mL
same,IC50,P815 [3],> 100 µg/mL
same,IC50,P815 [4],21 µg/mL
CS(=O)(=O)O[C@@H]1[C@@H](O)[C@H](n2cc(F)c(N)nc2=O)O[C@@H]1CO,IC50,L5178Y [1],5.3 µg/mL
same,IC50,L5178Y [2],0.05 µg/mL
same,IC50,P815 [3],6 µg/mL
same,IC50,P815 [4],0.02 µg/mL
Nc1ccn(C2OC(CO)C(I)C2O)c(=O)n1 (stereo not drawn),IC50,L5178Y [1],> 100 µg/mL
same,IC50,L5178Y [2],0.1 µg/mL
same,IC50,P815 [3],> 100 µg/mL
same,IC50,P815 [4],0.3 µg/mL
Cc1ccc(S(=O)(=O)O[C@@H]2[C@@H](O)[C@H](n3cc(F)c(N)nc3=O)O[C@@H]2CO)cc1,IC50,L5178Y [1],8 µg/mL
same,IC50,L5178Y [2],0.06 µg/mL
same,IC50,P815 [3],3.9 µg/mL
same,IC50,P815 [4],0.02 µg/mL
Nc1ccn([C@@H]2O[C@H](CO)[C@@H](O)[C@@H]2O)c(=O)n1 [CYTARABINE],IC50,L5178Y [1],79 µg/mL
same,IC50,L5178Y [2],20 µg/mL
same,IC50,P815 [3],40 µg/mL
same,IC50,P815 [4],10 µg/mL
Nc1nc(=O)n(C2OC(CO)C(Br)C2O)cc1F (stereo not drawn),IC50,L5178Y [1],2.6 µg/mL
same,IC50,L5178Y [2],0.06 µg/mL
same,IC50,P815 [3],5 µg/mL
same,IC50,P815 [4],0.2 µg/mL
Nc1nc(=O)n(C2OC(CO)C(I)C2O)cc1F (stereo not drawn),IC50,L5178Y [1],10 µg/mL
same,IC50,L5178Y [2],0.08 µg/mL
same,IC50,P815 [3],8 µg/mL
same,IC50,P815 [4],0.1 µg/mL
